Tests used:
[1] = biological target: T1, c-kit kinase (Homo sapiens, UniProt P10721); assay: c-Kit biochemical assay, AlphaScreen, 10 μM ATP; settings: c-kit biochemical inhibitory activity; read-out: Biochemical activity (IC50 μM) Kit
T1 construct: The c-kit (or kinase domain thereof) is an active kinase in AlphaScreen; poly-Histidine tag (in-house protein only) (cleaved yes); host or cells: E. coli BL21(DE3)RIL, co-expressed with PTP1B
Procedure, shortened: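 His-tagged c-Kit expressed in E. coli with co-expressed PTP1B (dephosphorylated), tag removed; 0.1 ng per reaction with biotinylated-peptide substrate in 50 mM HEPES pH 7.2, 5 mM MgCl2, 5 mM MnCl2, 5% DMSO, 10 μM ATP, 1 h at room temperature. Phosphorylation detected by AlphaScreen (streptavidin donor, PY20 acceptor beads); IC50 from 8-point 1:3 dilution series.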

[2] = biological target: T2, c-kit mutant D816V (Homo sapiens, UniProt P10721, D816V/DEL694-753); assay: c-Kit mutant D816V biochemical assay, AlphaScreen; settings: c-kit D816V biochemical inhibitory activity; read-out: Biochemical activity (IC50 μM) Kit D816V
T2 construct: residues 551-934, kinase insertion domain residues 694-753 deleted; 6x-histidine (N); made in house; host or cells: E. coli Arctic Express (DE3) RIL (Stratagene)
T2 sequence (P10721 with tags, fused parts or gaps DEL694-753/D816V): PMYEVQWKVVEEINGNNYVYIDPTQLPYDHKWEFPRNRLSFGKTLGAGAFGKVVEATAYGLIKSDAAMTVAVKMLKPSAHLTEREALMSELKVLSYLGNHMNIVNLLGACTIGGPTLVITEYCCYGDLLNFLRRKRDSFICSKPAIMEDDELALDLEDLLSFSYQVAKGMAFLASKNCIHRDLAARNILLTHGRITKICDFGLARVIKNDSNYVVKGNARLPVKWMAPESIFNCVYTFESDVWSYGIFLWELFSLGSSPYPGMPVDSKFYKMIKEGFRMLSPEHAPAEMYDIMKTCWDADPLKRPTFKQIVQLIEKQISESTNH
Procedure, shortened: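 Purified His-tagged c-Kit D816V (E. coli-expressed) assayed in 25 mM HEPES pH 7.2 with Mg/Mn, 5% DMSO and 10 μM ATP, 30 min at room temperature, 8-point 1:3 dilutions. Phosphorylation detected by AlphaScreen with streptavidin donor and PY20 acceptor beads; IC50 from signal versus concentration.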

T1 sequence (P10721 26-976): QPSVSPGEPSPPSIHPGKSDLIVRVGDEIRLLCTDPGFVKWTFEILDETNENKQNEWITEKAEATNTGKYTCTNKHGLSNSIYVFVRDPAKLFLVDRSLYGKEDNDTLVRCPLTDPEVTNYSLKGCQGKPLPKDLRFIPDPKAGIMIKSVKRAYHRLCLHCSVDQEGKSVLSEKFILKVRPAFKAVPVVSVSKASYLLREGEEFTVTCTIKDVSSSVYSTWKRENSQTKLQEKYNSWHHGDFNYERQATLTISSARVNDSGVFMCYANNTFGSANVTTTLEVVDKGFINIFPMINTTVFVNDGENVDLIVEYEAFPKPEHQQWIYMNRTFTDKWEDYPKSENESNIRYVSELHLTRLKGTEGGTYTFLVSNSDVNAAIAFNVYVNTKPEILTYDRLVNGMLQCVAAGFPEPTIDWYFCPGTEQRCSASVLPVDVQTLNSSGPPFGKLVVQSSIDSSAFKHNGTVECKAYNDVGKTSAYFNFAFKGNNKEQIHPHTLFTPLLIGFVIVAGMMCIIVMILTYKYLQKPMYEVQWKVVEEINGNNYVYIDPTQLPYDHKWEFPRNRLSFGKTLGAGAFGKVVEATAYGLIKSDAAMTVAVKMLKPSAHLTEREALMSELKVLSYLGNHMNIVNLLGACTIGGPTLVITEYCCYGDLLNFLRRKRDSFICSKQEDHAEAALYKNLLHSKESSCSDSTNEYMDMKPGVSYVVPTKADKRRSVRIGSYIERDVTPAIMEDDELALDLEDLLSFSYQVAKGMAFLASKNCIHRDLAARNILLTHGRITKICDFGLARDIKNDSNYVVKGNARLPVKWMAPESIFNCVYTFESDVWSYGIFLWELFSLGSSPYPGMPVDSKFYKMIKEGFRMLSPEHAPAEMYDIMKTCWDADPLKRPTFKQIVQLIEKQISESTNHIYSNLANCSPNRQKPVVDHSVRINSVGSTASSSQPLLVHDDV

Row | Structure (SMILES) | IC50 [1] [µM] | IC50 [2] [µM]
1 | Cc1nn(C)cc1-c1cc2c(N3CCN(C(=O)N[C@@H](C)c4ccc(Cl)cc4)CC3)ncnc2[nH]1 [P-0716, N-[(1S)-1-(4-chlorophenyl)ethyl]-4-[6-(1,3-dimethylpyrazol-4-yl)-7H-pyrrolo[2,3-d]pyrimidin-4-yl]piperazine-1-carboxamide] | 10 to 200 | 0.0001 to 1
2 | C[C@H]1CN(c2ncnc3[nH]c(-c4ccncc4)cc23)CCN1 [P-0071, 4-[(3S)-3-methylpiperazin-1-yl]-6-(4-pyridyl)-7H-pyrrolo[2,3-d]pyrimidine] | 10 to 200 | 1 to 10
3 | COc1ccc(CCNC(=O)N2CCN(c3ncnc4[nH]ccc34)CC2)cc1 [P-0169, N-[2-(4-methoxyphenyl)ethyl]-4-(7H-pyrrolo[2,3-d]pyrimidin-4-yl)piperazine-1-carboxamide] | 10 to 200 | 10 to 200
4 | CC1(C)C=C(c2cc3c(N4CCC(NS(=O)(=O)c5ccc(OC(F)(F)F)cc5)CC4)ncnc3[nH]2)CC(C)(C)N1 [P-0662, N-[1-[6-(2,2,6,6-tetramethyl-1,3-dihydropyridin-4-yl)-7H-pyrrolo[2,3-d]pyrimidin-4-yl]-4-piperidyl]-4-(trifluoromethoxy)benzenesulfonamide] | 1 to 10 | 1 to 10
5 | CS(=O)(=O)Nc1ccc(-c2ncnc3cc(C4=CCN(C(=O)C5CC5)CC4)sc23)cc1 [P-0572, N-[4-[6-[1-(cyclopropanecarbonyl)-3,6-dihydro-2H-pyridin-4-yl]thieno[3,2-d]pyrimidin-4-yl]phenyl]methanesulfonamide] | 0.0001 to 1 | 0.0001 to 1
6 | C[C@H](NC(=O)N1CCN(c2ncnc3[nH]c(-c4cnn(C)c4)cc23)C[C@H]1C)c1ccc(Cl)cc1 [P-0717, (2R)-N-[(1S)-1-(4-chlorophenyl)ethyl]-2-methyl-4-[6-(1-methylpyrazol-4-yl)-7H-pyrrolo[2,3-d]pyrimidin-4-yl]piperazine-1-carboxamide] | 1 to 10 | 0.0001 to 1
7 | C[C@H](NC(=O)N1CCN(c2ncnc3[nH]c(-c4ccc(C#N)cc4)cc23)C[C@H]1C)c1ccc(F)cc1 [P-0690, (2R)-4-[6-(4-cyanophenyl)-7H-pyrrolo[2,3-d]pyrimidin-4-yl]-N-[(1S)-1-(4-fluorophenyl)ethyl]-2-methyl-piperazine-1-carboxamide] | 10 to 200 | 0.0001 to 1
8 | C[C@H](NC(=O)N1CCN(c2ncnc3[nH]c(-c4cnn(C)c4)cc23)CC1)c1ccc(Cl)cc1 [P-0095, N-[(1S)-1-(4-chlorophenyl)ethyl]-4-[6-(1-methylpyrazol-4-yl)-7H-pyrrolo[2,3-d]pyrimidin-4-yl]piperazine-1-carboxamide] | 0.0001 to 1 | 0.0001 to 1
9 | Cc1ccc(S(=O)(=O)Nc2ccc(-c3ncnc4[nH]c(-c5ccc(F)cc5)cc34)cc2)cc1 [P-0433, N-[4-[6-(4-fluorophenyl)-7H-pyrrolo[2,3-d]pyrimidin-4-yl]phenyl]-4-methyl-benzenesulfonamide] | 0.0001 to 1 | 0.0001 to 1
10 | Cc1cc2c(-c3ccc(NS(=O)(=O)c4ccc(C(F)(F)F)nc4)cc3)ncnc2[nH]1 [P-0297, N-[4-(6-methyl-7H-pyrrolo[2,3-d]pyrimidin-4-yl)phenyl]-6-(trifluoromethyl)pyridine-3-sulfonamide] | 10 to 200 | 1 to 10
11 | CCc1ccc(S(=O)(=O)NC2CCN(c3ncnc4[nH]c(C)cc34)CC2)s1 [P-0730, 5-ethyl-N-[1-(6-methyl-7H-pyrrolo[2,3-d]pyrimidin-4-yl)-4-piperidyl]thiophene-2-sulfonamide] | 0.0001 to 1 | 0.0001 to 1
12 | Cc1n[nH]c2ncnc(-c3ccc(NS(=O)(=O)c4cccc(Cl)c4)cc3)c12 [P-0443, 3-chloro-N-[4-(3-methyl-1H-pyrazolo[3,4-d]pyrimidin-4-yl)phenyl]benzenesulfonamide] | 1 to 10 | 0.0001 to 1
13 | C[C@H](NC(=O)N1CCN(c2ncnc3[nH]c(-c4cnn(C)c4)cc23)CC1(C)C)c1ccc(F)cc1 [P-0720, N-[(1S)-1-(4-fluorophenyl)ethyl]-2,2-dimethyl-4-[6-(1-methylpyrazol-4-yl)-7H-pyrrolo[2,3-d]pyrimidin-4-yl]piperazine-1-carboxamide] | 0.0001 to 1 | 0.0001 to 1
14 | CS(=O)(=O)Nc1ccc(-c2ncnc3[nH]c(-c4ccc(F)cc4)cc23)cc1 [P-0432, N-[4-[6-(4-fluorophenyl)-7H-pyrrolo[2,3-d]pyrimidin-4-yl]phenyl]methanesulfonamide] | 0.0001 to 1 | 0.0001 to 1
15 | O=C(Nc1ccc(F)cc1)N1CCN(c2ncnc3[nH]ccc23)CC1 [P-0183, N-(4-fluorophenyl)-4-(7H-pyrrolo[2,3-d]pyrimidin-4-yl)piperazine-1-carboxamide] | 1 to 10 | 10 to 200
16 | Cc1nn(C)cc1-c1cc2ncnc(N3CCN(C(=O)N[C@H](C)c4ccc(F)cc4)[C@H](C)C3)c2s1 [P-0609, (2R)-4-[6-(1,3-dimethylpyrazol-4-yl)thieno[3,2-d]pyrimidin-4-yl]-N-[(1R)-1-(4-fluorophenyl)ethyl]-2-methyl-piperazine-1-carboxamide] | 1 to 10 | 0.0001 to 1
17 | COc1cc(-c2cc3c(N4CCC(NS(=O)(=O)c5ccc(OC(F)(F)F)cc5)CC4)ncnc3[nH]2)ccn1 [P-0460, N-[1-[6-(2-methoxy-4-pyridyl)-7H-pyrrolo[2,3-d]pyrimidin-4-yl]-4-piperidyl]-4-(trifluoromethoxy)benzenesulfonamide] | 10 to 200 | 10 to 200
18 | CNC(=O)c1cccc(-c2cc3c(N4CCN(C(=O)NCc5ccc(F)cc5)CC4)ncnc3[nH]2)c1 [P-0081, N-[(4-fluorophenyl)rnethyl]-4-[6-[3-(methylcarbamoyl)phenyl]-7H-pyrrolo[2,3-d]pyrimidin-4-yl]piperazine-1-carboxamide] | 1 to 10 | 0.0001 to 1
19 | C[C@H](NC(=O)N1CCN(c2ncnc3cc(-c4ccc(F)cc4)sc23)CC1(C)C)c1cccc(OC(F)F)c1 [P-0577, N-[(1S)-1-[3-(difluoromethoxy)phenyl]ethyl]-4-[6-(4-fluorophenyl)thieno[3,2-d]pyrimidin-4-yl]-2,2-dimethyl-piperazine-1-carboxamide] | 10 to 200 | 0.0001 to 1
20 | Cc1ccc(S(=O)(=O)NC2CCN(c3ncnc4[nH]c(C)cc34)CC2)cc1 [P-0675, 4-methyl-N-[1-(6-methyl-7H-pyrrolo[2,3-d]pyrimidin-4-yl)-4-piperidyl]benzenesulfonamide] | 10 to 200 | 1 to 10
21 | COc1cccc([C@H](C)NC(=O)N2CCN(c3ncnc4[nH]c(-c5ccncc5)cc34)C[C@H]2C)c1 [P-0060, (2R)-N-[(1S)-1-(3-methoxyphenyl)ethyl]-2-methyl-4-[6-(4-pyridyl)-7H-pyrrolo[2,3-d]pyrimidin-4-yl]piperazine-1-carboxamide] | 0.0001 to 1 | 0.0001 to 1
22 | Cc1cc2c(-c3ccc(NS(=O)(=O)c4ccc(C)s4)cc3F)ncnc2[nH]1 [P-0291, N-[3-fluoro-4-(6-methyl-7H-pyrrolo[2,3-d]pyrimidin-4-yl)phenyl]-5-methyl-thiophene-2-sulfonamide] | 1 to 10 | 0.0001 to 1
23 | C[C@H](NC(=O)N1CCN(c2ncnc3cc(-c4ccc(F)cc4)sc23)CC1(C)C)c1ccc(Cl)cc1 [P-0575, N-[(1S)-1-(4-chlorophenyl)ethyl]-4-[6-(4-fluorophenyl)thieno[3,2-d]pyrimidin-4-yl]-2,2-dimethyl-piperazine-1-carboxamide] | 10 to 200 | 0.0001 to 1
24 | COc1cccc(CNC(=O)N2CCN(c3ncnc4[nH]c(-c5cccnc5)cc34)CC2)n1 [P-0128, N-[(6-methoxy-2-pyridyl)methyl]-4-[6-(3-pyridyl)-7H-pyrrolo[2,3-d]pyrimidin-4-yl]piperazine-1-carboxamide] | 10 to 200 | 1 to 10
25 | C[C@H](NC(=O)N1CCN(c2ncnc3[nH]c(-c4ccc(C#N)cc4)cc23)C[C@H]1C)c1cccc(Cl)c1 [P-0694, (2R)-N-[(1S)-1-(3-chlorophenyl)ethyl]-4-[6-(4-cyanophenyl)-7H-pyrrolo[2,3-d]pyrimidin-4-yl]-2-methyl-piperazine-1-carboxamide] | 10 to 200 | 0.0001 to 1
26 | Cc1cc2c(-c3ccc(NS(=O)(=O)c4cc5ccccc5s4)cc3)ncnc2[nH]1 [P-0309, N-[4-(6-methyl-7H-pyrrolo[2,3-d]pyrimidin-4-yl)phenyl]benzothiophene-2-sulfonamide] | 1 to 10 | 1 to 10
27 | Cc1cc2c(-c3ccc(NS(=O)(=O)c4ccc5c(c4)CCC5)cc3)ncnc2[nH]1 [P-0302, N-[4-(6-methyl-7H-pyrrolo[2,3-d]pyrimidin-4-yl)phenyl]indane-5-sulfonamide] | 10 to 200 | 0.0001 to 1
28 | C[C@@H]1CN(c2ncnc3[nH]c(-c4ccncc4)cc23)CCN1C(=O)NCc1ccc(F)cc1 [P-0061, (2R)-N-[(4-fluorophenyl)methyl]-2-methyl-4-[6-(4-pyridyl)-7H-pyrrolo[2,3-d]pyrimidin-4-yl]piperazine-1-carboxamide] | 1 to 10 | 0.0001 to 1
29 | Cn1cc(-c2cc3c(N4CCC(NS(=O)(=O)c5ccc6c(c5)CCC6)CC4)ncnc3[nH]2)cn1 [P-0452, N-[1-[6-(1-methylpyrazol-4-yl)-7H-pyrrolo[2,3-d]pyrimidin-4-yl]-4-piperidyl]indane-5-sulfonamide] | 1 to 10 | 0.0001 to 1

Reference: patent publication US10227357B2, “Compounds and methods for kinase modulation, and indications therefor” (Plexxikon Inc., priority 2012, dated 2019)
